Test results from ChEMBL document CHEMBL1201862, “PubChem BioAssay data set” (2004).
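The compound was tested at five concentrations on cells cultured in 96-well plates, with a 48-hour exposure period. GI50 = concentration required for 50% inhibition of growth.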 The source made the active and inactive calls. Cut-off read from the data, not from the text of the source: active = GI50 up to about 1.1 µM and inactive = higher.

Columns and labels:
Assay in all cases: growth of human tumour cells (NCI), 48 h
DLD-1 = tested on: DLD-1
DMS-114 = tested on: DMS-114
LXFL 529 = tested on: LXFL 529
M19-MEL = tested on: M19-MEL
RXF 631 = tested on: RXF 631
SNB-78 = tested on: SNB-78
XF498 = tested on: XF498
HOP-18 = tested on: HOP-18
KM-20L2 = tested on: KM-20L2

Compound	GI50 (DLD-1)	GI50 (DMS-114)	GI50 (LXFL 529)	GI50 (M19-MEL)	GI50 (RXF 631)	GI50 (SNB-78)	GI50 (XF498)	GI50 (HOP-18)	GI50 (KM-20L2)
COc1ccc(OC)c(/C=N/N=C(\N)NO)c1	17.2 µM (inactive)	14.9 µM (inactive)	4.57 µM (inactive)	61 µM (inactive)	37.6 µM (inactive)	82.6 µM (inactive)	18 µM (inactive)		
c1ccc(C(c2ccccc2)c2ccncc2)cc1	> 100 µM (inactive)	> 100 µM (inactive)		> 100 µM (inactive)	> 100 µM (inactive)	> 100 µM (inactive)	> 100 µM (inactive)	> 100 µM (inactive)	> 100 µM (inactive)
C[S+]([O-])c1cc(=O)c2ccccc2s1 (stereo not drawn)	2.14 µM (inactive)	4.2 µM (inactive)	1.54 µM (inactive)	6.03 µM (inactive)		7.52 µM (inactive)	4.1 µM (inactive)	10.3 µM (inactive)	6.25 µM (inactive)
OC1(C(Sc2ccccc2)Sc2ccccc2)CCCCCC1	38.4 µM (inactive)	27.1 µM (inactive)		35.2 µM (inactive)		74.1 µM (inactive)	13.6 µM (inactive)		2.81 µM (inactive)
Cc1cc(C)nc(NS(=O)(=O)c2ccc(Nc3c4ccccc4nc4c(C(=O)Nc5ccc(S(N)(=O)=O)cc5)cccc34)cc2)n1	71.8 µM (inactive)	> 100 µM (inactive)	88.9 µM (inactive)	94.2 µM (inactive)		> 100 µM (inactive)	> 100 µM (inactive)	51.6 µM (inactive)	> 100 µM (inactive)
CC(C)(C)c1ccc(OCCOCCOc2ccc(C(C)(C)C)cc2S(=O)(=O)Nc2ccc([N+](=O)[O-])cc2)c(S(=O)(=O)Nc2ccc([N+](=O)[O-])cc2)c1	38.6 µM (inactive)	9.42 µM (inactive)		6.11 µM (inactive)	6.82 µM (inactive)	15.2 µM (inactive)		9.75 µM (inactive)	
CC(=O)OC1CCC2C(=CCC3C2(C)C(=O)CC2(C)C(C4(C)OC(C(C)C)=CC4=O)C(O)CC32C)C1(C)C (stereo not drawn)	32.5 µM (inactive)	25.8 µM (inactive)	31.3 µM (inactive)	12.6 µM (inactive)		78.3 µM (inactive)	31.3 µM (inactive)		17.9 µM (inactive)
CC(O)C(NC(=O)c1ccccc1)C(=O)N(Cc1ccccc1)Cc1ccccc1 (stereo not drawn)	> 100 µM (inactive)	> 100 µM (inactive)	> 100 µM (inactive)	> 100 µM (inactive)	> 100 µM (inactive)	> 100 µM (inactive)	> 100 µM (inactive)	37 µM (inactive)	> 100 µM (inactive)
CC(=O)OC12C(C)=C(C)C(=O)N1c1ccccc1N2C(C)=O (stereo not drawn)			> 100 µM (inactive)	> 100 µM (inactive)		> 100 µM (inactive)	> 100 µM (inactive)	> 100 µM (inactive)	> 100 µM (inactive)
Cc1ccc(Sc2ccccc2N)cc1		43.4 µM (inactive)	16.8 µM (inactive)	41.6 µM (inactive)	29 µM (inactive)	84.7 µM (inactive)		77.8 µM (inactive)	39.9 µM (inactive)
Oc1cc2c(cc1O)-c1[nH]ncc1CC2	52.5 µM (inactive)	16.5 µM (inactive)	31.3 µM (inactive)	40.7 µM (inactive)		80.4 µM (inactive)	27.6 µM (inactive)	6.15 µM (inactive)	38.5 µM (inactive)
CCOC(=O)NC/C=C/CO	> 100 µM (inactive)	> 100 µM (inactive)	> 100 µM (inactive)	> 100 µM (inactive)	> 100 µM (inactive)	> 100 µM (inactive)		> 100 µM (inactive)	> 100 µM (inactive)
O=C(Nc1nc2ncn(CCI)c2c(=O)[nH]1)c1ccccc1			> 100 µM (inactive)	> 100 µM (inactive)	> 100 µM (inactive)	> 56.1 µM (inactive)	20.4 µM (inactive)	> 56.1 µM (inactive)	> 100 µM (inactive)
Cc1cc2occ(-c3ccc(Cl)cc3)c2c(=O)o1	76 µM (inactive)	> 100 µM (inactive)	> 100 µM (inactive)		> 100 µM (inactive)	> 100 µM (inactive)		> 100 µM (inactive)	> 100 µM (inactive)
N#C/N=C(/NCc1ccccc1)N(Cc1ccccc1)Cc1ccccc1	> 10 µM (inactive)	> 10 µM (inactive)	> 10 µM (inactive)	> 10 µM (inactive)			> 10 µM (inactive)		> 10 µM (inactive)
CC(Oc1ccc(OCC2CCCCC2)cc1)C(=O)O (stereo not drawn)	> 100 µM (inactive)	> 100 µM (inactive)	> 100 µM (inactive)	> 100 µM (inactive)		> 100 µM (inactive)	> 100 µM (inactive)	> 100 µM (inactive)	
CCc1cccc(C(C)C)c1NC(=O)CCl	> 100 µM (inactive)		> 100 µM (inactive)	58.3 µM (inactive)	19.7 µM (inactive)	> 100 µM (inactive)	> 100 µM (inactive)		> 100 µM (inactive)
Cc1c(-c2coc(-c3ccc(Cl)cc3)n2)c(=O)n(-c2ccccc2)n1C	> 100 µM (inactive)		> 100 µM (inactive)	> 100 µM (inactive)		> 100 µM (inactive)	19.1 µM (inactive)		> 100 µM (inactive)
C[C@H]1C=C2C(=O)O[C@H]3CC[C@@H](C1)[C@@]23O	2.7 µM (inactive)	2.62 µM (inactive)	2.93 µM (inactive)	3.76 µM (inactive)		2.82 µM (inactive)		3.18 µM (inactive)	4.91 µM (inactive)
CC1OC(CC2C=CCc3c(O)c4c(c(O)c32)C(=O)c2ccccc2C4=O)CC(NC(=O)C(F)(F)F)C1O (stereo not drawn)	7.38 µM (inactive)	10 µM (inactive)	6.87 µM (inactive)	8.22 µM (inactive)		4.18 µM (inactive)	1.91 µM (inactive)		16.3 µM (inactive)
CCCCc1c2c(nc3c1CCc1cc(C=O)c(N)nc1-3)/C(=C/c1ccccc1)CCC2		> 100 µM (inactive)	> 100 µM (inactive)	> 100 µM (inactive)		> 100 µM (inactive)	44.4 µM (inactive)	> 100 µM (inactive)	> 100 µM (inactive)
COc1cc2c(c(O)c1C)C(=O)C(Cl)=CC2=O	17.4 µM (inactive)	16.6 µM (inactive)	7.43 µM (inactive)	7.98 µM (inactive)	12.1 µM (inactive)	12.8 µM (inactive)	20 µM (inactive)	16.5 µM (inactive)	23.1 µM (inactive)
CCN(CCCl)CCCNc1c2ccccc2nc2ccc(OC)cc12	0.084 µM (active)	0.314 µM (active)	0.0912 µM (active)	0.216 µM (active)		0.357 µM (active)	0.116 µM (active)		0.181 µM (active)
COc1cc(/C=C/c2ccncc2)cc(OC)c1OC	> 100 µM (inactive)	> 100 µM (inactive)	55 µM (inactive)		31.6 µM (inactive)	96.2 µM (inactive)	22.4 µM (inactive)	70.8 µM (inactive)	65.5 µM (inactive)
